Source: patent US10689415B2, “Conjugates of RGD peptides and (bacterio)chlorophyll photosensitizers” (YEDA RESEARCH AND DEVELOPMENT COMPANY LTD., priority 2006, dated 2020)
Where no end group is shown, it is not given here.

What was measured:
CT26luc colon cancer = assay: In vivo PDT (VTP) of CT26luc colon cancer; design: species or system CD-1 nude male mice; details: i.v. injected and illuminated after 8 hours
Protocol: CD-1 nude male mice bearing the different tumor xenografts were anesthetized and 24 (5-24 mg/kg body weight) or 8 (9 mg/kg body weight) were i.v. injected via the tail vein. The tumors were trans-cutaneously illuminated after 3.5, 6, 8, 12 and 24 hours for 5-30 min at light doses of 30-360 J/cm^2. Intensity of illumination: 100-200 mW/cm^2. After treatment, the mice were returned to the cage. The mice were considered cured if tumor free for 90 days after treatment. Mice were euthanized when the tumor diameter reached 15 mm. […] (5) Mixture of 8 and cycloRGDfK: the mice were i.v. injected with mixture of 8 with cycloRGDfK and illuminated after indicated time point. (6) cycloRGDfK alone: the mice were i.v. injected with cycloRGDfK and illuminated after indicated time point. Images were taken at indicated time post PDT.
FIGS. 32A-32F show the therapeutic results of applying 15 mg/kg, 10 min illumination (60 J/cm^2), 8 hours post injection of conjugate 24 to mice bearing CT26luc tumors (bolded protocol in Table 5). 32A—conjugate 24 was i.v. injected 15 mg/kg, 10 min illumination (60 J/cm^2) 8 hours post injection; 32B—overlaid images taken after i.p. injection of luciferin to the mouse described in 32A, using the IVIS system. The first image is black and white, which gives the photograph of the animal. The second image is color overlay of the emitted photon data. […]

H5V endothelial cells [1] = assay: Phototoxicity assay (Neutral Red cell viability after illumination); type: cell-based, mouse; details: for LD50: Table 3: 10 μM BSA in medium (90 min, 37° C.)
Protocol: The light source for in vitro studies was home-built 100-W halogen lamp equipped with a high-pass filter (>650 nm, Safelight filter 1A Eastman Kodak Co., Rochester, N.Y., USA) and a 4-cm water filter. The lamp was used to illuminate (20 mW/cm^2/10 min (12 J/cm^2)) the culture plates from the bottom at room temperature in a dark room.
To determine the pigment photodynamic efficacy in vitro under standard conditions, cells were cultured in 96-well plates and preincubated for 15 or 90 min at 37° C. or 4° C., according to the indicated experiment protocol, with 0-25 μM conjugated or non-conjugated photosensitizer in different media conditions (culture medium DMEM/F12; 10% FCS in medium or 10 μM BSA in medium) in the absence or presence of excess free peptide (100 fold up to 1 mM). The cells were washed and illuminated (20 mW/cm^2 for 10 min). Plates were placed back in the culture incubator for 24 h. Cell survival was determined using Neutral Red cell viability assay. Cell survival was calculated as the percent of the dye accumulated in the untreated controls. […] Three kinds of controls were used: (i) light control: cells illuminated in the absence of pigments; (ii) dark control: cells treated with pigments but kept in the dark; and (iii) untreated cells that were kept in the dark.
Following photosensitization and a 24-h incubation period (37° C.), cell survival was determined by Neutral Red (Fluka Chemie, Buchs, Switzerland) accumulation. After subtraction of assay blanks, net optical density (570 nm) was computed as the average value of triplicates determinations. Cell survival was calculated as the percent of the dye accumulated in the untreated controls.
H5V cells were incubated for 90 min at 37° C. with 0-25 μM of conjugate 23 or compound 10 in different media conditions, illuminated and their survival was determined using Neutral Red viability assay as described in Materials and Methods.
Targeted phototoxicity is defined as one inhibited by the free ligand. Thus, further experiments attempted to block phototoxicity by administration of the free cycloRGDfK, which competes for the cellular binding of conjugate 23. H5V cells were incubated for 90 min at 37° C. with 0-25 μM of compound 10 or conjugate 23 in different media (10% FCS in medium or 10 μM BSA in medium) in the absence or presence of free excess cycloRGDfK (100-fold up to 1 mM). The cells were illuminated and cell survival was determined using Neutral Red viability assay, as described above.
In order to test the endocytosis theory and since the endocytic process is time- and temperature-dependent, H5V cells were incubated at 37° C. and 4° C. for 15 min with 0-20 μM of conjugate 23 in medium containing 10% FCS, in the presence or absence of excess cycloRGDfK (100-fold up to 1 mM). Cells were illuminated and their survival was determined as described above.
The phototoxicity of conjugate 24 was determined by monitoring the survival of cultured H5V endothelial cells following PDT. H5V cells were incubated for 2 hours at 37° C. with 0-25 μM conjugate 24 in culture medium DMEM/F12 with 10% FCS. The cells were illuminated and their survival was determined as described above.
Cells were incubated for 90 min at 37° C. in the presence of 0-20 μM conjugate 11 or compound 8 in 10 μM BSA in medium, illuminated and their survival was determined as described above.

rat C6 glioma xenografts = assay: Whole-body NIR fluorescence imaging, rat C6 glioma xenografts; type: in vivo, CD-1 nude male mice; details: 200 nmol dose, 4 to 72 hours post injection
Source text: The in Vivo Optical Imaging System (IVISR100/XFO-12, Xenogen Corp., Alameda, Calif., USA) was used to acquire fluorescent images of the RFP-expressing tumors, as well as photosensitizers associated with tissues and organs after their intravenous (i.v.) infusion to the tested animals. The field-of-view was 15 cm. Two images were taken; the first image is black and white, providing a photograph of the animal. The second image is a colored overlay of the emitted photon data, in the present case the NIR fluorescence of the compound (680-720 nm excitation filter and a 780-810 nm emission filter) or bioluminescence (560 nm) as described below. […]
Dynamic fluorescence images were acquired immediately following the injection of a conjugate of the invention and continued for approximately 2 hours. Fluorescence images were also obtained under isoflurane anesthesia for up to 72 hr after initial injection of the conjugate. […]
Dynamic fluorescence images were obtained from CD-1 nude male mice bearing rat C6 glioma xenografts. The fluorescence images were acquired using IVIS system as described in Materials and Methods. […]
Specific binding is defined as one inhibited by the unconjugated sensitizer. […] Fluorescence images of the blocked receptor xenografts with the same exposure time are illustrated in FIG. 19 on the same linear color scale to allow for a qualitative comparison. […]

[2] = Solubilization for in vitro experiments (water solubility); type: physicochemical
Protocol: Compound 24 was dissolved in 100% DMSO before use and diluted in saline to a final DMSO concentration of 5% v/v.

[3] = tested on: tumor grafts of mouse CT26luc colon carcinoma; assay: Biodistribution (Pd by ICP-MS) in mice with CT26luc colon carcinoma grafts; type: in vivo, CD1 nude male mice; details: 8 hours post injection
Protocol: Anesthetized mice were i.v. injected (tail vein) with the different photosensitizer (pigment) conjugates (control group: untreated). The mice were sacrificed at indicated time points and samples of the indicated organs and tissues (blood, tumor, intestine, liver, spleen, kidneys, testies, heart, lung, brain, skin, muscle and fat) were placed in pre-weighted vials and immediately frozen and stored at −20° in the dark until analyzed. Three methods were used for sample preparation: (1) Each sample was thawed and homogenized in DDW (1:10 w/v). Aliquots of the homogenate (500 μl) were lyophilized in Eppendorf test tubes. […] Pd concentrations were determined by ICP-MS. According to method (3), the supernatants were diluted in methanol by a factor of two and the drug concentration was determined by fluorescence measurements (Varian-Cary Eclipse spectrofluorimeter, Palo Alto, Calif., USA) at 750 nm (peak values). Drug concentrations were interpolated from a fluorescence calibration curve, based on predetermined drug concentrations using absorption spectroscopy. […]
The conjugates of the invention are potential drug carriers. […] In order to quantify the conjugate levels in target tissues, Ion Coupled Plasma-Mass Spectroscopy (ICP-MS) was used for tracing the central M atom (e.g., Pd, Cu) in the target organ. […]

[4] = molecular target: isolated αvβ3 integrin receptor (Homo sapiens, UniProt P05106+P06756); assay: Solid-phase receptor assay, Eu-RGD-4C binding competed by RGD-4C; details: 100 μM of RGD-4C; highest attenuation
Sequence of isolated αvβ3 integrin receptor (P06756 31-889 limits assumed): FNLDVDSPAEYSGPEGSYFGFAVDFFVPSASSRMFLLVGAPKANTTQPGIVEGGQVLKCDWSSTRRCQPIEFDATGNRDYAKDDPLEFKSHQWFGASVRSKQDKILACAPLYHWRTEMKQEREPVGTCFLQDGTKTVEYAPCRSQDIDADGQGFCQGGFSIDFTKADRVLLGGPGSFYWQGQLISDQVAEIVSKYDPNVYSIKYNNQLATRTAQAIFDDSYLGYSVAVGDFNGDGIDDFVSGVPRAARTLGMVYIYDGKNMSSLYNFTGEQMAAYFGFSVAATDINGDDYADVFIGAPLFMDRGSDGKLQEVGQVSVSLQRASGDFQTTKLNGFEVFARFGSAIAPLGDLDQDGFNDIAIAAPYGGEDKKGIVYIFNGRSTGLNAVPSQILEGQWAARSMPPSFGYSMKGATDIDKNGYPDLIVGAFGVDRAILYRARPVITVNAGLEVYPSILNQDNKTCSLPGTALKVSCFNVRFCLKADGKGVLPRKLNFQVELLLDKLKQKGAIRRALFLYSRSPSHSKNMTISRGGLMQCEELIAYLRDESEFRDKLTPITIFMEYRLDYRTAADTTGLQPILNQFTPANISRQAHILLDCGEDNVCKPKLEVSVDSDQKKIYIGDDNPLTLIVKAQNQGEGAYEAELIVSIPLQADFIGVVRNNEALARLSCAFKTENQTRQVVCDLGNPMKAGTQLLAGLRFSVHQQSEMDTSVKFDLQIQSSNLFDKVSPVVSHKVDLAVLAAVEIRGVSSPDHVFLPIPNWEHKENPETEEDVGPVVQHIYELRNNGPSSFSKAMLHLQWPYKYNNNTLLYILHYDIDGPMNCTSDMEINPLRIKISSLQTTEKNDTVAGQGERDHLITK
Sequence of isolated αvβ3 integrin receptor (P06756 891-1048 limits assumed): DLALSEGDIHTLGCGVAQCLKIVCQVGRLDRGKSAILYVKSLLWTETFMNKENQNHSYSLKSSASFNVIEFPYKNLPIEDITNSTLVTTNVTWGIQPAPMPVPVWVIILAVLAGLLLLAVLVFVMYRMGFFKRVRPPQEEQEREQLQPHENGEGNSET
Sequence of isolated αvβ3 integrin receptor (P05106 27-788): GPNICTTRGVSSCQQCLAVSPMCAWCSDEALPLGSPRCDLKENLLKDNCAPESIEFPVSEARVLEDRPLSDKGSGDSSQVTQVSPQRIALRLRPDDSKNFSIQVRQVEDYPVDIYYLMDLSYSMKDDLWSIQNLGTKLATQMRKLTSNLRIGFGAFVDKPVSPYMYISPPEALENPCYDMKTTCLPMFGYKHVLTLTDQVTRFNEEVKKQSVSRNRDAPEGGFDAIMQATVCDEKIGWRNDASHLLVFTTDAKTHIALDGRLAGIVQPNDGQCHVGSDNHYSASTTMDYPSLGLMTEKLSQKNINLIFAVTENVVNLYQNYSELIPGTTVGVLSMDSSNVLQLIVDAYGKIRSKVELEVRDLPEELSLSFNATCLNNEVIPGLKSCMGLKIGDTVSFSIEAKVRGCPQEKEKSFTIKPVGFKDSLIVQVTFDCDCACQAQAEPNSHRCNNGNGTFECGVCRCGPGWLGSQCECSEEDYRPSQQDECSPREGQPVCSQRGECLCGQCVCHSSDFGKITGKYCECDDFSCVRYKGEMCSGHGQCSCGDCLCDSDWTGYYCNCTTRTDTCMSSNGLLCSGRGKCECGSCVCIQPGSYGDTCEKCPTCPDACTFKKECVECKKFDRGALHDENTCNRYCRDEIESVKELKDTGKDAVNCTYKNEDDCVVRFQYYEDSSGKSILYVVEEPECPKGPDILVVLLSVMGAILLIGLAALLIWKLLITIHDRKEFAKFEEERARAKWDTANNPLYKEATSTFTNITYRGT
Protocol: The binding of Eu-RGD-4C to isolated αvβ3 integrin receptor was determined using time-resolved fluorometry. Each well of a microtiter plate (Nunc MaxiSorb) was coated with 50 μl of purified receptor (1 μg/ml in PBS) by shaking at 4° C. overnight. The receptor solution was then removed, and each well was blocked with 200 μl of milk (1% w/v milk powder in PBS, 1 hr, room temperature). The plate was then washed with 200 μl of PBS once, and incubated for 1 h at 37° C. with increasing concentrations of RGD-4C in the presence of constant amount of Eu-RGD-4C (10 million F.U./well). The ligand/competitor solution was removed and each well was washed three times with 200 μl PBS. Enhancement solution was added (200 μl/well) to release the chelated Eu. […] Under these experimental conditions, 100 μM of RGD-4C reduced by 50% Eu-RGD-4C binding to the isolated receptor. This value represents the highest attenuation of the Eu-RGD-4C binding, even at RGD-4C highest concentrations.

HUVEC = assay: Cell detachment (rounding) assay, HUVEC; type: cell-based, human; details: 100 μM RGD-4C; recovery after 24 h in fresh medium
Protocol: (§1) H5V cells were cultured as monolayers in 3-cm dish for 24-48 h, and further incubated for 1 h with 100 μM RGD-4C at 4° C. or 37° C. The cells were washed once and re-incubated for three hours with fresh culture medium at 37° C. In the same fashion, HUVEC were cultured as monolayers in 6-well plate pre-coated with gelatin for 48 h, and incubated for 1 h with 100 μM RGD-4C at 37° C. The cells were washed once and re-incubated for 24 h with fresh culture medium at 37° C. The morphological changes of the cells were documented using light microscopy.

αvβ5 and αvβ3 integrins = details: read-out: affinity constant; reports by others; cited from earlier work
H5V endothelial cells [5] = assay: Cell detachment (rounding) assay, H5V; type: cell-based, mouse
Protocol: as §1
The biological effect of RGD-4C binding was characterized in H5V cells and Human Umbilical Vein Endothelial Cells (HUVEC) using the cell-rounding assay described in Materials and Methods. The morphological changes of the cells were documented using light microscopy. […] This effect was reversible as the cells recovered following 3 h re-incubation with fresh culture medium (8% rounded cells in dishes with previous presence of RGD-4C versus 6% in the absence of RGD-4C).

Substance	PDT effect of controls (CT26luc colon cancer)	phototoxic effects (H5V endothelial cells [1]; 90 min, 37° C., 10 μM BSA in medium, 0-20 μM)	LD50 (H5V endothelial cells [1]) [µM]	LD50 (H5V endothelial cells [1]; with free peptide excess (RGD-4C 1 mM)) [µM]	whole-body fluorescence distribution (rat C6 glioma xenografts)	water solubility [2]	concentrations in the tumor tissue and blood [3]	reduction of Eu-RGD-4C binding to the isolated receptor [4] [%]	HUVEC detachment (HUVEC)	Kd (αvβ5 and αvβ3 integrins) [nM]	rounded cells (cell detachment from the dish) (H5V endothelial cells [5]; 100 μM RGD-4C, n=200) [%]	rounded cells after 3 h re-incubation with fresh culture medium (H5V endothelial cells [5]; previous presence of RGD-4C, 37° C.) [%]
Palladium 3^1-oxo-15-methoxycarbonylmethyl-Rhodobacteriochlorin 13^1-(2-sulfoethyl)amide potassium salt [Compound 8, reference compound]	no PDT effect	light- and drug concentration-dependent	1.8 to 2	2	no specific signal could be seen	Water-soluble						
Palladium 3^1-oxo-15-methoxycarbonylmethyl-Rhodobacteriochlorin 13^1-(2-sulfoethyl)amide-17^3-(cycloRADfK)amide potassium salt [Conjugate 42]							quite the same					
the cyclic nonapeptide CDCRGDCFC-NH2 (disulfide (positions not given here)) [RGD-4C]						Water insoluble		50	induced HUVEC detachment from the dish in a reversible manner	~100	99	8
